# Laboratory results: ChEMBL document CHEMBL1155140, “Differentially expressed proteins in derivatives of Candida albicans displaying a stable histatin 3-resistant phenotype” (2007)
# Active and inactive are the calls of the source. The calls are words filed in the database; no cut-off is given here.
# Key:
# [1] = system: Candida albicans; experiment: Antifungal activity against histatin-resistant Candida albicans CAHR04U at 0.2 mg/mL; assay type: functional
# [2] = system: Candida albicans; experiment: Reduction of TRK1 gene expression in histatin-resistant Candida albicans CAHR04A; assay type: functional
# [3] = system: Candida albicans; experiment: Reduction of ATP release in histatin-resistant Candida albicans CAHR04A at 0.2 mg/mL after 45 mins
# [4] = system: Candida albicans; experiment: Reduction of ATP release in histatin-resistant Candida albicans CAHR04U at 0.2 mg/mL after 45 mins
# [5] = system: Candida albicans; experiment: Reduction of TRK1 gene expression in histatin-resistant Candida albicans CAHR04B; assay type: functional
# [6] = system: Candida albicans; experiment: Antifungal activity against histatin-resistant Candida albicans CAHR04A at 0.2 mg/mL; assay type: functional
# [7] = system: Candida albicans; experiment: Antifungal activity against histatin-resistant Candida albicans CAHR04B at 0.2 mg/mL; assay type: functional
# [8] = system: Candida albicans; experiment: Antifungal activity against histatin-resistant Candida albicans CAHR1 at 0.2 mg/mL measured after storage at -80 degC for 1 year; assay type: functional
# [9] = system: Candida albicans; experiment: Reduction of ATP release in histatin-resistant Candida albicans CAHR04B at 0.2 mg/mL after 45 mins
# [10] = system: Candida albicans; experiment: Antifungal activity against histatin-resistant Candida albicans CAHR4 at 0.2 mg/mL measured after storage at -80 degC for 1 year; assay type: functional
# [11] = system: Candida albicans; experiment: Antifungal activity against histatin-susceptible Candida albicans CA132A at 0.2 mg/mL; assay type: functional
smiles,measurement,setting,value
CC(C)C[C@H](NC(=O)[C@H](Cc1ccc(O)cc1)NC(=O)[C@H](CC(N)=O)NC(=O)[C@H](CO)NC(=O)[C@H](CCCNC(=N)N)NC(=O)[C@H](Cc1ccc(O)cc1)NC(=O)CNC(=O)[C@H](CCCNC(=N)N)NC(=O)[C@H](Cc1cnc[nH]1)NC(=O)[C@H](CO)NC(=O)[C@H](Cc1cnc[nH]1)NC(=O)[C@H](Cc1cnc[nH]1)NC(=O)[C@H](CCCCN)NC(=O)[C@H](CCC(=O)O)NC(=O)[C@H](Cc1cnc[nH]1)NC(=O)[C@H](Cc1ccccc1)NC(=O)[C@H](CCCCN)NC(=O)[C@H](CCCNC(=N)N)NC(=O)[C@H](CCCCN)NC(=O)[C@H](Cc1ccc(O)cc1)NC(=O)CNC(=O)[C@H](Cc1cnc[nH]1)NC(=O)[C@H](Cc1cnc[nH]1)NC(=O)[C@H](CCCNC(=N)N)NC(=O)[C@H](CCCCN)NC(=O)[C@H](C)NC(=O)[C@H](Cc1cnc[nH]1)NC(=O)[C@H](CO)NC(=O)[C@@H](N)CC(=O)O)C(=O)N[C@@H](Cc1ccc(O)cc1)C(=O)N[C@@H](CC(=O)O)C(=O)N[C@@H](CC(N)=O)C(=O)O [Histatin 3],Activity,[1],17.9%
same,Activity,[2],Active
same,fold change (FC),[2],2
same,Activity,[3],Active
same,Activity,[4],Active
same,fold change (FC),[5],1.6
same,Activity,[6],17.9%
same,Activity,[7],17.9%
same,Activity,[8],86.4%
same,Activity,[9],Active
same,Activity,[10],94.4%
same,Activity,[11],91.7%
